In test [1] the target is T1, Amine oxidase [flavin-containing] A (Homo sapiens, UniProt P21397).
T1 sequence (P21397 whole entry): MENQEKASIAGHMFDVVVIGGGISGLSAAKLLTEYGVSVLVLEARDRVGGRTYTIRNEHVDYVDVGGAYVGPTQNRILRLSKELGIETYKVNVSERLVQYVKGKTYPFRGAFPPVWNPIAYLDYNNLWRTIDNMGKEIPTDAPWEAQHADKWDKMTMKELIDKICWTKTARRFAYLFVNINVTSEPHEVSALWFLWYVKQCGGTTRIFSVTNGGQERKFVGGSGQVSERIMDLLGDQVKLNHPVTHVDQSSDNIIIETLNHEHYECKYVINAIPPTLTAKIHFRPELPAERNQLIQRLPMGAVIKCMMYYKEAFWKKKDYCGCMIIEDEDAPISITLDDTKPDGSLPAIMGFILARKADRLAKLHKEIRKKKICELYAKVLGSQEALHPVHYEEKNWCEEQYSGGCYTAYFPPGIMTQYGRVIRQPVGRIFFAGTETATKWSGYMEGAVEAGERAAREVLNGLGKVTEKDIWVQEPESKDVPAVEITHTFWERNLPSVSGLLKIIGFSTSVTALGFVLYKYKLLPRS
It counts as functional.

Test [2] has as its target T2, Alpha-2A adrenergic receptor (Homo sapiens, UniProt P08913).
T2 sequence (P08913 whole entry): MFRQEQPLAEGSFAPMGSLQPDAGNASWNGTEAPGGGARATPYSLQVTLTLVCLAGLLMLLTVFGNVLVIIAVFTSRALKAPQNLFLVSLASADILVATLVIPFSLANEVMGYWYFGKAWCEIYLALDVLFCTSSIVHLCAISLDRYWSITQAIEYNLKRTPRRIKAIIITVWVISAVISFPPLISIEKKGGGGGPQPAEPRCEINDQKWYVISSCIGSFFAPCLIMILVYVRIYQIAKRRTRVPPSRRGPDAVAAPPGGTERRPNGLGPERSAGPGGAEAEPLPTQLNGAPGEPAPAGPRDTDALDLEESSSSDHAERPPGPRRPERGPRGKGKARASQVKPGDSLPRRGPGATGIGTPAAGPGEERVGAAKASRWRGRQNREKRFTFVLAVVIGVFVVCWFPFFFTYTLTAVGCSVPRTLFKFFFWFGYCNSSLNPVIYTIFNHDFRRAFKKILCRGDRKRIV
It counts as functional, cell-based.

The target of another test is D(3) dopamine receptor (Homo sapiens, UniProt P35462).
The target of test [3] is T3, 5-hydroxytryptamine receptor 3A (Homo sapiens, UniProt P46098).
T3 sequence (P46098 whole entry): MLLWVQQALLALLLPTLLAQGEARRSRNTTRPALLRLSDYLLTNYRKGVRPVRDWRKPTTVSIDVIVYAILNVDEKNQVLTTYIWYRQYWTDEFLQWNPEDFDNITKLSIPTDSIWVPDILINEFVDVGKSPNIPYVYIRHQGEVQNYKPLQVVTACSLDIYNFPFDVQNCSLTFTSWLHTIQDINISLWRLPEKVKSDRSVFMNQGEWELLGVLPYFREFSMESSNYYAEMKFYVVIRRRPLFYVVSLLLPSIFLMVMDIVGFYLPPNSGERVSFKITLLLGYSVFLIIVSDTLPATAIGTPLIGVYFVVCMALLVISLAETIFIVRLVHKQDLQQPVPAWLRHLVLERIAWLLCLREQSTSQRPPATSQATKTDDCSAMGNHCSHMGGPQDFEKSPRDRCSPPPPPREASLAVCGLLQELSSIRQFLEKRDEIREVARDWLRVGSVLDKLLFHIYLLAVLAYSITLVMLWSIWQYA
The format is functional.

For test [4], the target named is T4, Prostaglandin G/H synthase 1 (Rattus norvegicus, UniProt Q63921).
T4 sequence (Q63921 whole entry): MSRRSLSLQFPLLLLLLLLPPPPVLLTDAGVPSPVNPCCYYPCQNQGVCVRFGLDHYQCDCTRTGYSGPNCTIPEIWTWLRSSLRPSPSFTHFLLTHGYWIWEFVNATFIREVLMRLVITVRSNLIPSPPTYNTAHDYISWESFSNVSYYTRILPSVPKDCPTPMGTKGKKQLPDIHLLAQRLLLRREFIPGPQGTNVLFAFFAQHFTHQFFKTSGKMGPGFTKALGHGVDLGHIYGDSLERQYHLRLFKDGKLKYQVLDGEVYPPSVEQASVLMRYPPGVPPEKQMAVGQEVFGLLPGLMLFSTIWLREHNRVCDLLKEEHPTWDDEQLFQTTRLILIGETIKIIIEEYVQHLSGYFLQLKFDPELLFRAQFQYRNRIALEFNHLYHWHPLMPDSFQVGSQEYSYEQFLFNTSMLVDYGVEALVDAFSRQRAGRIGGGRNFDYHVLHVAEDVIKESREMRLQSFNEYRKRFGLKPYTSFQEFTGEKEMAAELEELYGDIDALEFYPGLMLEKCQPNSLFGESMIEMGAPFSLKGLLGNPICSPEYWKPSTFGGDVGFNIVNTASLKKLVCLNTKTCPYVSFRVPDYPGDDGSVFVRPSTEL
It counts as functional.

Test [5] has as its target T5, Alpha-1A adrenergic receptor (Homo sapiens, UniProt P35348).
T5 sequence (P35348 whole entry): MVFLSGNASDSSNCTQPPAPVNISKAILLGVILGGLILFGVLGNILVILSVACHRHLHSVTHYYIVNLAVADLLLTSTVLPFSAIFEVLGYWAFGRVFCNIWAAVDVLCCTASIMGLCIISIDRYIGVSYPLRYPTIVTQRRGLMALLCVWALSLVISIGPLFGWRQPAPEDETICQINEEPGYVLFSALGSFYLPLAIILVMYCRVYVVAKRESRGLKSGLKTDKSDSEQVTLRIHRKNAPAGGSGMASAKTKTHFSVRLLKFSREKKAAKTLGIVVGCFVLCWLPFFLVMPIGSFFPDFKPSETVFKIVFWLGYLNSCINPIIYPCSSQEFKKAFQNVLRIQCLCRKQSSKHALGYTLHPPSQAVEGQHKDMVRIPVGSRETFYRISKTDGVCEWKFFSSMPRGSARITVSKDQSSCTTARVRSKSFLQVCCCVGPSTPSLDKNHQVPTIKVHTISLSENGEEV
The format is functional, cell-based.

The record followed here is ChEMBL document CHEMBL5291721, “A preclinical secondary pharmacology resource illuminates target-adverse drug reaction associations of marketed drugs” (Nat Commun, 2023).
Further: assay procedure not described here.

Chain of D(3) dopamine receptor (P35462 whole entry): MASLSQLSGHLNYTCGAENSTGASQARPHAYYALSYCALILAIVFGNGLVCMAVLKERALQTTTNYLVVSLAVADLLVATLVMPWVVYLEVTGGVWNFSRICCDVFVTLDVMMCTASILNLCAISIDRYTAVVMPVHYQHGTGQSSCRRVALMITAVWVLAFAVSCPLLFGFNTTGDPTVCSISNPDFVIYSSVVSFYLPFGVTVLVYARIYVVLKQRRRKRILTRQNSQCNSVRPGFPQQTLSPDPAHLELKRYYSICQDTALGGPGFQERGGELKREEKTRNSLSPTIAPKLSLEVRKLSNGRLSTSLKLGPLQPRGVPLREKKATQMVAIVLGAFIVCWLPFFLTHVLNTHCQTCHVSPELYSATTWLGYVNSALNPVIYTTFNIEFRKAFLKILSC

The AC50 is the midpoint of the concentration-response curve, whichever way the signal moves. Read a low AC50 as greater potency. Take `CC(=N)N1CC[C@H](SC2=C(C(=O)O)N3C(=O)[C@H]([C@@H](C)O)[C@H]3C2)C1`: the half-maximal activity concentration (AC50) is over 300 µM in test [1]; over 300 µM in test [2]; over 300 µM on D(3) dopamine receptor; over 300 µM in test [3]; 5.1 µM in test [4]; over 300 µM in test [5].
On to `CC(/C=C1\SC(=S)N(CC(=O)O)C1=O)=C\c1ccccc1`, for which the AC50 in test [1] is over 30 µM; in test [2], over 30 µM; in test [3], 13 µM; in test [4], over 30 µM; in test [5] it was 25 µM.
On to `CC1(C)S[C@@H]2[C@H](NC(=O)[C@H](N)c3ccc(O)cc3)C(=O)N2[C@H]1C(=O)O` [AMOXICILLIN], for which the AC50 (in test [1]; in test [2]; on D(3) dopamine receptor; in test [3]; in test [4]; in test [5]) was over 30 µM each time.
Consider `O=C1CN2Cc3c(ccc(Cl)c3Cl)N=C2N1` [ANAGRELIDE], for which the AC50 in test [1] is over 10 µM; in test [2] it was over 10 µM; on D(3) dopamine receptor, over 30 µM; in test [3], over 30 µM; in test [4] it was over 30 µM; in test [5], over 30 µM.
Take `CNCC[C@@H](Oc1ccccc1C)c1ccccc1` [ATOMOXETINE]: the AC50 in test [1] was over 30 µM; on D(3) dopamine receptor it was 26 µM; in test [4], over 30 µM; in test [5] it was over 30 µM.
Regarding `CCc1oc2ccccc2c1C(=O)c1cc(Br)c(O)c(Br)c1` [BENZBROMARONE], the AC50 was over 30 µM in test [1]; 3.74 µM in test [2]; over 30 µM at D(3) dopamine receptor; over 30 µM in test [3]; over 30 µM in test [4]; 2.65 µM in test [5].
For `C=C(C)[C@@H]1CCC(C)=C[C@H]1c1c(O)cc(CCCCC)cc1O` [CANNABIDIOL], the half-maximal activity concentration (AC50) in test [1] was over 30 µM; in test [2] it was over 10 µM; on D(3) dopamine receptor it was over 30 µM; in test [3] it was over 30 µM; in test [4], 0.771 µM; in test [5], over 10 µM.
In the case of `CO/N=C(\C(=O)N[C@@H]1C(=O)N2C(C(=O)O)=C(COC(N)=O)CS[C@H]12)c1ccco1` [CEFUROXIME], the AC50 (in test [1]; in test [2]; on D(3) dopamine receptor; in test [3]; in test [4]; in test [5]) was over 30 µM each time.
Consider `[H]/N=C(\N/C(=N/[H])NCCCCCCNC(=N)NC(=N)Nc1ccc(Cl)cc1)Nc1ccc(Cl)cc1` [CHLORHEXIDINE], for which the AC50 in test [1] was over 10 µM; in test [2], 4.34 µM; at D(3) dopamine receptor, 3.2 µM; in test [3], 5.9 µM; in test [4], over 10 µM; in test [5], 0.6 µM.
Turning to `Clc1cccc(Cl)c1N=C1NCCN1` [CLONIDINE], the AC50 in test [1] is over 10 µM; on D(3) dopamine receptor, over 10 µM; in test [3], over 30 µM; in test [4], over 30 µM.
As to `CN1C[C@H](C(=O)N[C@]2(C)O[C@@]3(O)[C@@H]4CCCN4C(=O)[C@H](Cc4ccccc4)N3C2=O)C[C@@H]2c3cccc4[nH]cc(c34)C[C@H]21` [DIHYDROERGOTAMINE], the AC50 in test [1] was over 10 µM; at D(3) dopamine receptor, 0.055 µM; in test [3], over 30 µM; in test [4] it was over 30 µM.
For the compound `CNCC[C@H](Oc1cccc2ccccc12)c1cccs1` [DULOXETINE], the concentration at half-maximal activity (AC50) in test [1] was over 10 µM; in test [2], over 10 µM; at D(3) dopamine receptor, 4.6 µM; in test [3] it was 14 µM; in test [4] it was over 30 µM.
For the compound `CCC(=O)O[C@@H](O[P@](=O)(CCCCc1ccccc1)CC(=O)N1C[C@H](C2CCCCC2)C[C@H]1C(=O)O)C(C)C` [FOSINOPRIL], the AC50 (in test [1]; in test [2]; on D(3) dopamine receptor; in test [3]; in test [5]) was over 30 µM in each case.
In the case of `CC[C@@H](CO)NC(=O)[C@@H]1C=C2c3cccc4[nH]cc(c34)C[C@H]2N(C)C1` [METHYLERGONOVINE], the AC50 in test [1] is over 30 µM; in test [2], 17 µM; at D(3) dopamine receptor, 0.29 µM; in test [3], over 30 µM; in test [4] it was over 30 µM.
As for `CNCCC=C1c2ccccc2CCc2ccccc21` [NORTRIPTYLINE], the AC50 in test [1] is over 30 µM; in test [3], over 30 µM; in test [4] it was over 30 µM; in test [5], 0.036 µM.
As to `CNC[C@H](O)c1cccc(O)c1` [PHENYLEPHRINE], the half-maximal activity concentration (AC50) in test [1] was over 10 µM; on D(3) dopamine receptor it was 4.1 µM; in test [3], over 10 µM; in test [4], over 30 µM.
As to `CC(C)C[C@H](CN)CC(=O)O` [PREGABALIN], the AC50 (in test [1]; in test [2]; at D(3) dopamine receptor; in test [3]; in test [4]) was over 30 µM each time.
On to `CNC(=O)c1cc(Oc2ccc(NC(=O)Nc3ccc(Cl)c(C(F)(F)F)c3)c(F)c2)ccn1` [REGORAFENIB], for which the AC50 in test [1] was 9.05 µM; on D(3) dopamine receptor, over 30 µM; in test [4] it was over 30 µM; in test [5], over 30 µM.
In the case of `CCCN(CCC)CCc1cccc2c1CC(=O)N2` [ROPINIROLE], the AC50 in test [1] was over 30 µM; in test [2] it was 12 µM; in test [3], over 30 µM; in test [4], over 30 µM; in test [5], over 30 µM.
Consider `CCCN(CCc1cccs1)[C@H]1CCc2c(O)cccc2C1` [ROTIGOTINE], for which the AC50 in test [1] was over 30 µM; in test [2] it was over 10 µM; in test [3] it was over 30 µM; in test [4], over 30 µM.
With `CN1CCN(CCCN2c3ccccc3Sc3ccc(S(=O)(=O)N(C)C)cc32)CC1` [THIOPROPERAZINE], the AC50 in test [1] was over 30 µM; in test [2], over 30 µM; at D(3) dopamine receptor, 0.031 µM; in test [3] it was over 30 µM; in test [5], 1 µM.
